Source: patent US20160355483A1, “COMPOUND BINDING TO PPARG BUT NOT ACTING AS PROMOTER AND PHARMACEUTICAL COMPOSITION FOR TREATING PPARG-RELATED DISEASES CONTAINING SAME AS ACTIVE INGREDIENT” (Hyundai Pharm Co., Ltd., priority 2014, published 2016)

What follows are compounds tested against T1, PPARG (peroxisome proliferator activated receptor-gamma), GST-PPARG-LBD (Homo sapiens, UniProt P37231) (assay: LanthaScreen TR-FRET PPARG Competitive Binding Assay). Conditions: degree of binding activity.
T1 construct: 15 μL of 5 nM GST-PPARG-LBD and 5 nM Tb-GST-antibody were added; purchased Invitrogen PV4894
T1 sequence (P37231 238-503 limits assumed): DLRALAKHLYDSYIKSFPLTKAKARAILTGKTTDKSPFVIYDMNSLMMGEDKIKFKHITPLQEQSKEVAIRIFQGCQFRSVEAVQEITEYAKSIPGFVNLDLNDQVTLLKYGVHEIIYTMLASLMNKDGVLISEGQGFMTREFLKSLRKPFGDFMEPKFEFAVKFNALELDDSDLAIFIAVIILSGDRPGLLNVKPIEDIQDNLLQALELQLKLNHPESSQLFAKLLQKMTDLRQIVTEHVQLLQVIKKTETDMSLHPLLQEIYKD
Design: key: “+” indicates the degree of the binding activity, and as the number of “+” increases, the binding activity is stronger; ++: “+” indicates the degree of the binding activity, and as the number of “+” increases, the binding activity is stronger; +++: “+” indicates the degree of the binding activity, and as the number of “+” increases, the binding activity is stronger; ++++: “+” indicates the degree of the binding activity, and as the number of “+” increases, the binding activity is stronger
Procedure, shortened: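 GST-tagged human PPARG LBD in a TR-FRET competitive binding kit, 1 h at room temperature. Read-out is the 518/488 nm emission ratio (340 nm excitation); activity = 100% − compound ratio/vehicle ratio, compared with rosiglitazone.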

Compound | Binding assay (1 μLM)
C[C@H](NC(=O)c1ccc2c(c1)OCCN2Cc1ccc(-c2ccccc2C(=O)O)cc1)c1ccc(C(F)(F)F)cc1 [Example 76, (S)-4′-((7-((1-(4-(trifluoromethyl)phenyl)ethyl)carbamoyl)-2H-benzo[b][1,4]oxazine-4(3H)-yl)methyl)-[1,1′-biphenyl]-2-carboxylic acid] | +++
C[C@H](NC(=O)c1ccc2c(c1)OCCN2Cc1ccc(-c2ccccc2C(=O)O)cc1)c1ccc(C(C)(C)C)cc1 [Example 78, (S)-4′-((7-((1-(4-(tert-butyl)phenyl)ethyl)carbamoyl)-2H-benzo[b][1,4]oxazine-4(3H)-yl)methyl)-[1,1′-biphenyl]-2-carboxylic acid] | ++
Cc1ccc([C@H](C)NC(=O)c2ccc3c(c2)OCCN3Cc2ccc(-c3ccccc3C(=O)O)cc2)cc1F [Example 80, (S)-4′-((7-((1-(3-fluoro-4-methylphenyl)ethyl)carbamoyl)-2H-benzo[b][1,4]oxazine-4(3H)-yl)methyl)-[1,1′-biphenyl]-2-carboxylic acid] | ++
C[C@H](NC(=O)c1ccc2c(c1)OCCN2Cc1ccc(-c2ccccc2C(=O)O)cc1)c1c(F)cccc1F [Example 83, (S)-4′-((7-((1-(2,6-fluorophenyl)ethyl)carbamoyl)-2H-benzo[b][1,4]oxazine-4(3H)-yl)methyl)-[1,1′-biphenyl]-2-carboxylic acid] | ++
C[C@H](NC(=O)c1ccc2c(c1)OCCN2Cc1ccc(-c2ccccc2C(=O)O)cc1)c1cccc(F)c1 [Example 84, (S)-4′-((7-((1-(3-fluorophenyl)ethyl)carbamoyl)-2H-benzo[b][1,4]oxazine-4(3H)-yl)methyl)-[1,1′-biphenyl]-2-carboxylic acid] | ++
C[C@H](NC(=O)c1ccc2c(c1)OCCN2Cc1ccc(-c2ccccc2C(=O)O)cc1)c1cccc(C(F)(F)F)c1 [Example 86, (S)-4′-((7-((1-(3-(trifluoromethyl)phenyl)ethyl)carbamoyl)-2H-benzo[b][1,4]oxazine-4(3H)-yl)methyl)-[1,1′-biphenyl]-2-carboxylic acid] | +++
O=C(NCc1ccccc1)c1ccc2c(c1)OCCN2Cc1ccc(-c2ccccc2C(=O)O)cc1 [Example 91, 4′-((7-(benzylcarbamoyl)-2H-benzo[b][1,4]oxazine-4(3H)-yl)methyl)-[1,1′-biphenyl]-2-carboxylic acid] | +++
O=C(NCc1ccccc1Br)c1ccc2c(c1)OCCN2Cc1ccc(-c2ccccc2C(=O)O)cc1 [Example 92, 4′-((7-((2-bromobenzyl)carbamoyl)-2H-benzo[b][1,4]oxazine-4(3H)-yl)methyl)-[1,1′-biphenyl]-2-carboxylic acid] | +++
O=C(NCc1ccc2c(c1)OCCO2)c1ccc2c(c1)OCCN2Cc1ccc(-c2ccccc2C(=O)O)cc1 [Example 93, 4′-((7-(((2,3-dihydrobenzo[b][1,4]dioxin-6-yl)methyl)carbamoyl)-2H-benzo[b][1,4]oxazine-4(3H)-yl)methyl)-[1,1′-biphenyl]-2-carboxylic acid] | ++
C[C@H](NC(=O)c1ccc2c(c1)OCCN2Cc1ccc(-c2ccccc2C(N)=O)cc1)c1ccc(SC(F)(F)F)cc1 [Example 99, (S)-4-((2′-carbamoyl-[1,1′-biphenyl]-4-yl)methyl)-N-(1-(4-((trifluoromethyl)thio)phenyl)ethyl)-3,4-dihydro-2H-benzo[b][1,4]oxazine-7-carboxamide] | +++
NC(=O)c1ccccc1-c1ccc(CN2CCOc3cc(C(=O)NCc4ccccc4Br)ccc32)cc1 [Example 101, N-(2-bromobenzyl)-4-((2′-carbamoyl-[1,1′-biphenyl]-4-yl)methyl)-3,4-dihydro-2H-benzo[b][1,4]oxazine-7-carboxamide] | ++
NC(=O)c1ccccc1-c1ccc(CN2CCOc3cc(C(=O)NCc4ccc5c(c4)OCCO5)ccc32)cc1 [Example 102, 4-((2′-carbamoyl-[1,1′-biphenyl]-4-yl)methyl)-N-((2,3-dihydrobenzo[b][1,4]dioxin-6-yl)methyl)-3,4-dihydro-2H-benzo[b][1,4]oxazine-7-carboxamide] | +

The next lines start with the values.

Binding assay (1 μLM) | Compound
+++ | C[C@H](NC(=O)c1ccc2c(c1)OCCN2Cc1ccc(-c2ccccc2C(=O)O)cc1)c1ccc(OC(F)(F)F)cc1 [Example 75, (S)-4′-((7-((1-(4-(trifluoromethoxy)phenyl)ethyl)carbamoyl)-2H-benzo[b][1,4]oxazine-4(3H)-yl)methyl)-[1,1′-biphenyl]-2-carboxylic acid]
+++ | C[C@H](NC(=O)c1ccc2c(c1)OCCN2Cc1ccc(-c2ccccc2C(=O)O)cc1)c1ccc(SC(F)(F)F)cc1 [Example 77, (S)-4′-((7-((1-(4-((trifluoromethyl)thio)phenyl)ethyl)carbamoyl)-2H-benzo[b][1,4]oxazine-4(3H)-yl)methyl)-[1,1′-biphenyl]-2-carboxylic acid]
++ | Cc1cc(F)ccc1[C@H](C)NC(=O)c1ccc2c(c1)OCCN2Cc1ccc(-c2ccccc2C(=O)O)cc1 [Example 79, (S)-4′-((7-((1-(4-fluoro-2-methylphenyl)ethyl)carbamoyl)-2H-benzo[b][1,4]oxazine-4(3H)-yl)methyl)-[1,1′-biphenyl]-2-carboxylic acid]
+++ | C[C@@H](NC(=O)c1ccc2c(c1)OCCN2Cc1ccc(-c2ccccc2C(=O)O)cc1)c1ccc(C#N)cc1 [Example 81, (R)-4′-((7-((1-(4-cyanophenyl)ethyl)carbamoyl)-2H-benzo[b][1,4]oxazine-4(3H)-yl)methyl)-[1,1′-biphenyl]-2-carboxylic acid]
+++ | O=C(NC1COc2ccccc2C1)c1ccc2c(c1)OCCN2Cc1ccc(-c2ccccc2C(=O)O)cc1 (stereo not drawn) [Example 82]
+++ | C[C@H](NC(=O)c1ccc2c(c1)OCCN2Cc1ccc(-c2ccccc2C(=O)O)cc1)c1cccc(OC(F)(F)F)c1 [Example 85, (S)-4′-((7-((1-(3-(trifluoromethoxy)phenyl)ethyl)carbamoyl)-2H-benzo[b][1,4]oxazine-4(3H)-yl)methyl)-[1,1′-biphenyl]-2-carboxylic acid]
++++ | C[C@H](NC(=O)c1ccc2c(c1)OCCN2Cc1ccc(-c2ccccc2C(=O)O)cc1)c1ccc2ccccc2c1 [Example 87, (S)-4′-((7-((1-(naphthalene-2-yl)ethyl)carbamoyl)-2H-benzo[b][1,4]oxazine-4(3H)-yl)methyl)-[1,1′-biphenyl]-2-carboxylic acid]
+ | O=C(NCc1ccccn1)c1ccc2c(c1)OCCN2Cc1ccc(-c2ccccc2C(=O)O)cc1 [Example 88, 4′-((7-((pyridine-2-ylmethyl)carbamoyl)-2H-benzo[b][1,4]oxazine-4(3H)-yl)methyl)-[1,1′-biphenyl]-2-carboxylic acid]
+ | O=C(NCc1cccnc1)c1ccc2c(c1)OCCN2Cc1ccc(-c2ccccc2C(=O)O)cc1 [Example 89, 4′-((7-((pyridine-3-ylmethyl)carbamoyl)-2H-benzo[b][1,4]oxazine-4(3H)-yl)methyl)-[1,1′-biphenyl]-2-carboxylic acid]
+ | O=C(NCc1ccncc1)c1ccc2c(c1)OCCN2Cc1ccc(-c2ccccc2C(=O)O)cc1 [Example 90, 4′-((7-((pyridine-4-ylmethyl)carbamoyl)-2H-benzo[b][1,4]oxazine-4(3H)-yl)methyl)-[1,1′-biphenyl]-2-carboxylic acid]
++ | C[C@@H](NC(=O)c1ccc2c(c1)OCCN2Cc1ccc(-c2ccccc2C(N)=O)cc1)c1ccc(C#N)cc1 [Example 94, (R)-4-((2′-carbamoyl-[1,1′-biphenyl]-4-yl)methyl)-N-(1-(4-cyanophenyl)ethyl)-3,4-dihydro-2H-benzo[b][1,4]oxazine-7-carboxamide]
+++ | C[C@H](NC(=O)c1ccc2c(c1)OCCN2Cc1ccc(-c2ccccc2C(N)=O)cc1)c1cccc(F)c1 [Example 95, (S)-4-((2′-carbamoyl-[1,1′-biphenyl]-4-yl)methyl)-N-(1-(3-fluorophenyl)ethyl)-3,4-dihydro-2H-benzo[b][1,4]oxazine-7-carboxamide]
+ | NC(=O)c1ccccc1-c1ccc(CN2CCOc3cc(C(=O)NCc4cccnc4)ccc32)cc1 [Example 97, 4-((2′-carbamoyl-[1,1′-biphenyl]-4-yl)methyl)-N-(pyridine-3-ylmethyl)-3,4-dihydro-2H-benzo[b][1,4]oxazine-7-carboxamide]
+ | NC(=O)c1ccccc1-c1ccc(CN2CCOc3cc(C(=O)NCc4ccncc4)ccc32)cc1 [Example 98, 4-((2′-carbamoyl-[1,1′-biphonyl]-4-yl)methyl)-N-(pyridine-4-ylmethyl)-3,4-dihydro-2H-benzo[b][1,4]oxazine-7-carboxamide]
++ | NC(=O)c1ccccc1-c1ccc(CN2CCOc3cc(C(=O)NCc4ccccc4)ccc32)cc1 [Example 100, N-benzyl-4-((2′-carbamoyl-[1,1′-biphenyl]-4-yl)methyl)-3,4-dihydro-2H-benzo[b][1,4]oxazine-7-carboxamide]
